Patent publication US20080051413A1, “Nitrophenylpiperazine derivative of xanthine which relaxes tracheal airway and increases respiratory performance” (KAOHSIUNG MEDICAL UNIVERSITY, priority 2006, published 2008)

Experiments:
[1] = target: T1, PDE3 purified from human platelets (Homo sapiens, UniProt Q14432); assay: Phosphodiesterase activity, PDE3; assay type: biochemical; settings: 10 _M compound, n = 3
T1 construct: PDE3 and PDE5 purified from human platelets; from tissue; host or cells: human platelets
Experimental: PDE3 and PDE5 purified from human platelets and PDE4 purified from human U-937 pronocytic cells were used. Test compound (10 _M) or vehicle was incubated with 0.2 _g of enzyme and 1 _M cAMP containing 0.01 _M [^3H]cAMP in Tris buffer, pH 7.5, for 20 min at 25_. The reaction was terminated by boiling for 2 min, and the resulting cAMP was converted to adenosine by the addition of 10 mg/ml snake venom nucleotidase, which is followed by a further incubation at 37_for 10 min. Unhydrolyzed cAMP was bound to AG1-X2 resin, and the remaining [^3H]adenosine in the aqueous phase was quantitated by scintillation counting.

respiratory performance = assay: Pulmonary function after i.v. injection (RL, Cdyn, tidal volume); assay type: in vivo; settings: 1 mg/kg i.v., guinea pig, n = 3
Experimental: Animals: Male Dunkin Harley guinea pigs (350-450 g) were provide by the National Laboratory Animal Breeding and Research Center (Taipei, Taiwan) and housed under conditions of constant temperature and controlled illumination. Food and water were available and libitum. The study was approved by the Animal Care and Use Committee of the Kaohsiung Medical University.
Pulmonary Function: Guinea pegs (350-450 g) were anesthetized with pentobarbital (40 mg/kg i.p.) and maintained with further i.v. doses of 2 to 5 mg/kg when required according to methods previously described (Wu B N, Lin R J, Lo Y C, Shen K P, Wang C C, Lin Y T, and Chen I J (2004) KMUP-1, a xanthine derivative, induces relaxation of guinea-pig isolated trachea: the role of the epithelium, cyclic nucleotides and K^+ channels, Br J Pharmacol 142:1105-1114). The animal was tethered in a supine position, and the trachea was cannulated below the larynx with a short tracheal cannula via a tracheotomy. Tracheal pressure was measured by a catheter connected to the side arm of the tracheal cannula. The carotid artery and jugular vein were cannulated to monitor blood pressure and heart rate and for drug administration, respectively. Throughout the experiment, the body temperature of the guinea pig was maintained at 37_. Measurements of pulmonary cardiac function were carried out as previously described (Hsu T H, Lai Y L, and Kou Y R (1998) Acetylcholine and tachykinin receptor antagonists attenuate wood smoke-induced bronchoconstriction in Guinea pigs. Eur J Pharmacol 360:175-183). Total lung resistance (RL) and dynamic lung compliance (Cdyn) were measured on a breath-by-breath basis using a computer equipped with an A/D interface (DAS 1600; Buxco Electronics, Inc., Wilmington, N.C.) and software (version 1.5.7; Buxco Electronics, Inc.). Results obtained from the computer analysis were checked for accuracy by comparison with those calculated manually.
Animals were allowed to stabilize for 10 min following surgical manipulations before the test agent was administered. Intratracheal instillation was performed using a catheter placed through the tracheal tube into the bronchial system. The catheter connected to a 1-ml syringe was inserted into the trachea cannula extending 1 cm beyond the tip of the cannula for instillation of drug or vehicle. The instillation was followed by rapid intratracheal injection of 0.5 ml of air to facilitate deposition of drug or vehicle into the lungs as in the modified methods of Chung et al. (2001)(Chung W H, Bennett B M, Racz W J, Brien J F, and […] Fischer 344 rats during aminodarone-induced pulmonary fibrosis. Am J Physiol 281:L1180-L1188). The animals were pretreated intratracheally with KMUP-3 (0.5, 1.0, and 2.0 mg/kg/150 _l of saline) or an equivalent volume (150 _l) of vehicle 15 min before TNF-_(0.01 mg/kg/300 _l saline) was instilled to induce acute bronchoconstriction. In another experiments, KMUP-3 or KMUP-1 (1.0 mg/kg i.v.) were used to compare the effects on respiratory performance, indicated by changes of tidal volume, total RL, and Cdyn.

[2] = test system: PDE4 purified from human U-937 pronocytic cells; assay: Phosphodiesterase activity, PDE4; assay type: biochemical; settings: 10 _M compound, n = 3
Experimental: Phosphodiesterase Activity: PDE activity was determined by the method of Nicholson et al. (Nicholson C D, Challiss R A, and Shahid M (1991) Differential modulation of tissue function and therapeutic potential of selective inhibitors of cyclic nucleotide phosphodiesterase isonzymes. Trends Pharmaclo Sci 12:19-27). PDE3 and PDE5 purified from human platelets and PDE4 purified from human U-937 pronocytic cells were used. Test compound (10 _M) or vehicle was incubated with 0.2 _g of enzyme and 1 _M cAMP containing 0.01 _M [^3H]cAMP in Tris buffer, pH 7.5, for 20 min at 25_. The reaction was terminated by boiling for 2 min, and the resulting […] was converted to adenosine by the addition of 10 mg/ml snake venom nucleotidase, which is followed by a further incubation at 37_for 10 min. Unhydrolyzed cAMP was bound to AG1-X2 resin, and the remaining [^3H]adenosine in the aqueous phase was quantitated by scintillation counting.

[3] = target: T2, PDE5 purified from human platelets (Homo sapiens, UniProt O76074); assay: Phosphodiesterase activity, PDE5; assay type: biochemical; settings: 10 _M compound, n = 3
T2 construct: PDE3 and PDE5 purified from human platelets; from tissue; host or cells: human platelets
Experimental: The reaction was terminated by boiling for 2 min, and the resulting GMP was converted to adenosine by the addition of 10 mg/ml snake venom nucleotidase, which was followed by a further incubation at 37_ for 10 min. Unhydrolyzed cGMP was bound to AG1-X2 resin, and the remaining [^3H]guanosine in the aqueous phase was quantitated by scintillation counting.

T1 sequence (Q14432 whole entry): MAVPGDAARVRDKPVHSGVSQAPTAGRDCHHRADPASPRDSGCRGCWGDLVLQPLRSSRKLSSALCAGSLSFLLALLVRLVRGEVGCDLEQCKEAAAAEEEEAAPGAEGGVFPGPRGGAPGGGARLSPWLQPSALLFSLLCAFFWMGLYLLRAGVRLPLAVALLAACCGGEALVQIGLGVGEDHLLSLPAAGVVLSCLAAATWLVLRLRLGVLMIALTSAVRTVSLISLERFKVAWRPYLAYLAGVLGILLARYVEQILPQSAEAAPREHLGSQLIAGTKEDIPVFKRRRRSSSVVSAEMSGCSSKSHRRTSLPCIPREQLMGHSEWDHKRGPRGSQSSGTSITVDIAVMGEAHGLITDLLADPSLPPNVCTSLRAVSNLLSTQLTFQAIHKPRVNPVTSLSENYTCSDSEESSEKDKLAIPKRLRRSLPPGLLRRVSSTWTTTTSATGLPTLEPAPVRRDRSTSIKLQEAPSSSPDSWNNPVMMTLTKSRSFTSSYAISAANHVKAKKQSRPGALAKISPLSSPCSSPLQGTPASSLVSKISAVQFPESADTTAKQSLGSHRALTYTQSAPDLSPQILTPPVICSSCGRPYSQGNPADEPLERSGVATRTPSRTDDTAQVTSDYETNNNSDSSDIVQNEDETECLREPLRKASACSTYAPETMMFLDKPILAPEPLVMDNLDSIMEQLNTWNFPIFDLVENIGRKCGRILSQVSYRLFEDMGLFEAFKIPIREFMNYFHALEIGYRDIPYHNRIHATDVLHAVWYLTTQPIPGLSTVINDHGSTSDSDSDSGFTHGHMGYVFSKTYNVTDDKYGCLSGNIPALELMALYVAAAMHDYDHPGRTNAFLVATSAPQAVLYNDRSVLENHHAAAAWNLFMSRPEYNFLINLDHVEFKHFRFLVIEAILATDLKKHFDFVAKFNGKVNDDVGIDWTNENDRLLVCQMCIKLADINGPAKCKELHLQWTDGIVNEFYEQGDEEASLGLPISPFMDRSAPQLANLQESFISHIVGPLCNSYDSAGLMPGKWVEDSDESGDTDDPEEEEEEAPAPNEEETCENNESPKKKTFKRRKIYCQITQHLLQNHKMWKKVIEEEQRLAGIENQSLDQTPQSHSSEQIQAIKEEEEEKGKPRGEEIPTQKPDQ

For `Cn1c(=O)c2c(ncn2CCN2CCN(c3ccccc3Cl)CC2)n(C)c1=O` [KMUP-1, reference compound], the PDE3 inhibition [1] was 23 ± 2.2%, the “Cdyn, Maximum change of baseline (%)” value (respiratory performance) was 35 ± 4.5% and the “RL, Maximum change of baseline (%)” value (respiratory performance) was −20 ± 3.5%. The “Tidal Volume, Maximum change of baseline (%)” value (respiratory performance) was 2.8 ± 0.2%, the “PDE4 Inhibition” value [2] was 18 ± 2.3% and the “PDE5 Inhibition” value [3] was 29 ± 2.5%.
